The results in this text go back to publication PMC10987858 (Heliyon, 2024).

The structures appear in SMILES notation.

Sequence of Bovine Serum Albumin (BSA) (P02769 25-607): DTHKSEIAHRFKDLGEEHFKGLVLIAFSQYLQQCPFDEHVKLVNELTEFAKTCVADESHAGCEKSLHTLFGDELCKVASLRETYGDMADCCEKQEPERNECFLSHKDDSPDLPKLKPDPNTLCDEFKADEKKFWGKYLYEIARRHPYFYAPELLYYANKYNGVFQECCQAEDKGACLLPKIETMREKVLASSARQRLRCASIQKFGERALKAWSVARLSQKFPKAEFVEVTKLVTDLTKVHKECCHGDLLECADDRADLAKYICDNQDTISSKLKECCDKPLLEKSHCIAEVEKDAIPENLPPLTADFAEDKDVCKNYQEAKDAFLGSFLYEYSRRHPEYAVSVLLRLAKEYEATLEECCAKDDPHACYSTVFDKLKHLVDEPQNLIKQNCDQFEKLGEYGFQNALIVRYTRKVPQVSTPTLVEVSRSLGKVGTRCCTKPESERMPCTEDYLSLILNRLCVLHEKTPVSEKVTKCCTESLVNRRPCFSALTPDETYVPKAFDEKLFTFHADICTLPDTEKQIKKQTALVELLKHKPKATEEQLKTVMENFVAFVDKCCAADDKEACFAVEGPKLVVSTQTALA

The experiment has as its target Bovine Serum Albumin (BSA) (Bos taurus, UniProt P02769). Briefly: tryptophan fluorescence quenching titration. Type of experiment: binding. The following applies: 298 K; phosphate buffer, pH not given; 10 μM BSA stock; double-log.
On to `O=C(Cc1ccccc1)NN=Cc1ccco1` [FMPAH, N’-(furan-2-ylmethylene)-2-phenylacetohydrazide], for which the “Kb” value was determined as 44500 M⁻¹.

In the case of `O=C(Cc1ccccc1)N/N=C/C=C/c1ccccc1` [PPAH, 2-Phenyl-N'-(3-phenylallylidene)acetohydrazide], the “Kb” value stood at 1.75e+08 M⁻¹.

Consider `O=C(Cc1ccccc1)NN=Cc1ccccc1O` [HBPAH, N'-(2-hydroxybenzylidene)-2-phenylacetohydrazide], for which the “Kb” value was found to be 683000 M⁻¹.

For `CC=NNC(=O)Cc1ccccc1` [EPAH, N′-ethylidene-2-phenylacetohydrazide], the “Kb” value is 2.47e+06 M⁻¹.
